Experiments:
Experiment in all cases: radiometric filter-binding kinase assay, Kinase HotSpot
Settings in all cases: compound 0.5 µM; ATP 10 µM
[1] = target: ABL2 (human) (UniProt P42684)
[2] = target: ACVRL1 (human) (UniProt P37023)
[3] = target: AKT2 (human) (UniProt P31751)
[4] = target: BTK (human) (UniProt Q06187)
[5] = target: CAMK1 (human) (UniProt Q14012)
[6] = target: CAMK2A (human) (UniProt Q9UQM7)
[7] = target: CAMK4 (human) (UniProt Q16566)
[8] = target: CDK1 CCNA2 (human) (UniProt P06493+P20248)
[9] = target: CDK2 CCNA2 (human) (UniProt P24941+P20248)
[10] = target: CDK2 CCNE1 (human) (UniProt P24941+P24864)
[11] = target: CDK7 CCNH MNAT1 (human) (UniProt P50613+P51948+P51946)
[12] = target: CHUK (human) (UniProt O15111)
[13] = target: CSNK1G1 (human) (UniProt Q9HCP0)
[14] = target: DYRK3 (human) (UniProt O43781)
[15] = target: EPHA5 (human) (UniProt P54756)
[16] = target: GRK4 (human) (UniProt P32298)
[17] = target: GRK5 (human) (UniProt P34947)
[18] = target: HIPK2 (human) (UniProt Q9H2X6)
[19] = target: IGF1R (human) (UniProt P08069)
[20] = target: KIT (human) (UniProt P10721)
[21] = target: MAP3K10 (human) (UniProt Q02779)
[22] = target: MAP4K2 (human) (UniProt Q12851)
[23] = target: MAPK1 (human) (UniProt P28482)
[24] = target: MAPK10 (human) (UniProt P53779)
[25] = target: MAPKAPK5 (human) (UniProt Q8IW41)
[26] = target: MELK (human) (UniProt Q14680)
[27] = target: MINK1 (human) (UniProt Q8N4C8)
[28] = target: MKNK2 (human) (UniProt Q9HBH9)
[29] = target: NEK3 (human) (UniProt P51956)
[30] = target: NEK6 (human) (UniProt Q9HC98)
[31] = target: NTRK2 (human) (UniProt Q16620)
[32] = target: PAK6 (human) (UniProt Q9NQU5)
[33] = target: PDPK1 (human) (UniProt O15530)
[34] = target: PRKCB2 (human) (UniProt P05771)
[35] = target: PRKCI (human) (UniProt P41743)
[36] = target: PRKD2 (human) (UniProt Q9BZL6)
[37] = target: PRKG2 (human) (UniProt Q13237)
[38] = target: SRPK2 (human) (UniProt P78362)
[39] = target: SRPK3 (human) (UniProt Q9UPE1)
[40] = target: STK33 (human) (UniProt Q9BYT3)
[41] = target: TGFBR1 (human) (UniProt P36897)
[42] = target: TSSK1B (human) (UniProt Q9BXA7)

Chain of PDPK1 (human) (O15530 whole entry, looked up): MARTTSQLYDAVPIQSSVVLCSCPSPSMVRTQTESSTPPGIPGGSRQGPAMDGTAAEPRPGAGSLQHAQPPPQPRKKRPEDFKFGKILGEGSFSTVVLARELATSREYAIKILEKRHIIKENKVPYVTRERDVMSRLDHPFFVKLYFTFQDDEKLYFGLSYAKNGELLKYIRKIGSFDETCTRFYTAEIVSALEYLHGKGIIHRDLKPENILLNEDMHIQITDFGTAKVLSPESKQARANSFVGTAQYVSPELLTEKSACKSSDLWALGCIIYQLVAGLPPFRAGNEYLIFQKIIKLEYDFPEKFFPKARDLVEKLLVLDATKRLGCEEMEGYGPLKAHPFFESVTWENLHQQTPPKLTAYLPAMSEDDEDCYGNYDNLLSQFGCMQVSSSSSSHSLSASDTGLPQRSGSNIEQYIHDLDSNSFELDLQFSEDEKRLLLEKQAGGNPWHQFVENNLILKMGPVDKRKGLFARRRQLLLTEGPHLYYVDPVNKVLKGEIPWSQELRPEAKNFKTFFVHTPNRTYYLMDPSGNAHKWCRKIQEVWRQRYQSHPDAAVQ
Chain of DYRK3 (human) (O43781 whole entry, looked up): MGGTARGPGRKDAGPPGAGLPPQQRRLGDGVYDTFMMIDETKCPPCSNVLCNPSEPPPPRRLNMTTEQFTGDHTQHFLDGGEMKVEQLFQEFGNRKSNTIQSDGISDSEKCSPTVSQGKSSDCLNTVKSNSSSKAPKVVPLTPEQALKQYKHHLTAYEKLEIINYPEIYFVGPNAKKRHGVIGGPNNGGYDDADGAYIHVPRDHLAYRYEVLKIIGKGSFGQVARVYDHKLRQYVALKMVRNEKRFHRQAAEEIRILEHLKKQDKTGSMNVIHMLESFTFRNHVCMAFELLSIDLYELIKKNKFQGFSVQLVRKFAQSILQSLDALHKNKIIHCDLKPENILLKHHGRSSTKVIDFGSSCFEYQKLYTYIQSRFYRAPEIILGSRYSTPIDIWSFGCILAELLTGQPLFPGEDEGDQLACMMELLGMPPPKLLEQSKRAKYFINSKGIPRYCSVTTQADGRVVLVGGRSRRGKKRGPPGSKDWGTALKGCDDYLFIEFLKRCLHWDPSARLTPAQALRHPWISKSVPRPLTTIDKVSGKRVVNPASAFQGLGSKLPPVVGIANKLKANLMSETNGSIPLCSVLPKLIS
Chain of MAP3K10 (human) (Q02779 whole entry, looked up): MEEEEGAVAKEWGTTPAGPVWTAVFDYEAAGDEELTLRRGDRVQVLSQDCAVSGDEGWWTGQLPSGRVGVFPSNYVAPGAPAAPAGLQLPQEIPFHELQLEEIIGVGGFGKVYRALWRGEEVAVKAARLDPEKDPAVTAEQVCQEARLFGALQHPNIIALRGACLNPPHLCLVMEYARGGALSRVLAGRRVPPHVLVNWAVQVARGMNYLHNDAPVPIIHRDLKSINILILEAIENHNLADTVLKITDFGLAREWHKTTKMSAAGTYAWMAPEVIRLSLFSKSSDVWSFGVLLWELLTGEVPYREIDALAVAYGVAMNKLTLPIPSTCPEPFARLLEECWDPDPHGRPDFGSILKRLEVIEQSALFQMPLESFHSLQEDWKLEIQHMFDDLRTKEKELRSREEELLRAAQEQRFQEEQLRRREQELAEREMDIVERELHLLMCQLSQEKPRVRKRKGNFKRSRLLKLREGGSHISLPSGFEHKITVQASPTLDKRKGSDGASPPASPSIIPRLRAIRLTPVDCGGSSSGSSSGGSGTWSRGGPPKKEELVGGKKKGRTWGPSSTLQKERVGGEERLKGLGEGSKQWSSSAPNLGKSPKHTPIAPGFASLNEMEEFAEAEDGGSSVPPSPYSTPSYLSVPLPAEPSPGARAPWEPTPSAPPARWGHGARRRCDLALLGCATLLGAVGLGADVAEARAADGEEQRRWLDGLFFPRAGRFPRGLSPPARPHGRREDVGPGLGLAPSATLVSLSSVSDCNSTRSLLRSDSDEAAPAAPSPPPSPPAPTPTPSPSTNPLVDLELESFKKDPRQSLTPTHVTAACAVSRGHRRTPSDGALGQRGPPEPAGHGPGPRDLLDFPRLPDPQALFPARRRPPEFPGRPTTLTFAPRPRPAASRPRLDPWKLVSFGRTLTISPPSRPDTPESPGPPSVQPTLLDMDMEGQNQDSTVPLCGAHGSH
Chain of TGFBR1 (human) (P36897 whole entry, looked up): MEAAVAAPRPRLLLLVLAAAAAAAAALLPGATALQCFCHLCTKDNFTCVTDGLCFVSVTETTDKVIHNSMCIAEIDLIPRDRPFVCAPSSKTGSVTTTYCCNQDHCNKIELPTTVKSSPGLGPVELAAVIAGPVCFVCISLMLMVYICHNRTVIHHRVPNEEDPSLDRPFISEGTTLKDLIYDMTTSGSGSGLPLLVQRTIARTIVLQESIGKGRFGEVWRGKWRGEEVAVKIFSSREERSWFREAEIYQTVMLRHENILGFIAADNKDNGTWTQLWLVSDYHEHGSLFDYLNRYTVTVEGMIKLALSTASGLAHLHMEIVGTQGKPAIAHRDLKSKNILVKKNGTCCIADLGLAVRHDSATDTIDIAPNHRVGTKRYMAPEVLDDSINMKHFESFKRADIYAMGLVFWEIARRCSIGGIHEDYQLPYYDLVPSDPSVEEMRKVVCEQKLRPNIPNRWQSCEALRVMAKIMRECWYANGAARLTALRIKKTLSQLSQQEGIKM
Chain of PRKG2 (human) (Q13237 whole entry, looked up): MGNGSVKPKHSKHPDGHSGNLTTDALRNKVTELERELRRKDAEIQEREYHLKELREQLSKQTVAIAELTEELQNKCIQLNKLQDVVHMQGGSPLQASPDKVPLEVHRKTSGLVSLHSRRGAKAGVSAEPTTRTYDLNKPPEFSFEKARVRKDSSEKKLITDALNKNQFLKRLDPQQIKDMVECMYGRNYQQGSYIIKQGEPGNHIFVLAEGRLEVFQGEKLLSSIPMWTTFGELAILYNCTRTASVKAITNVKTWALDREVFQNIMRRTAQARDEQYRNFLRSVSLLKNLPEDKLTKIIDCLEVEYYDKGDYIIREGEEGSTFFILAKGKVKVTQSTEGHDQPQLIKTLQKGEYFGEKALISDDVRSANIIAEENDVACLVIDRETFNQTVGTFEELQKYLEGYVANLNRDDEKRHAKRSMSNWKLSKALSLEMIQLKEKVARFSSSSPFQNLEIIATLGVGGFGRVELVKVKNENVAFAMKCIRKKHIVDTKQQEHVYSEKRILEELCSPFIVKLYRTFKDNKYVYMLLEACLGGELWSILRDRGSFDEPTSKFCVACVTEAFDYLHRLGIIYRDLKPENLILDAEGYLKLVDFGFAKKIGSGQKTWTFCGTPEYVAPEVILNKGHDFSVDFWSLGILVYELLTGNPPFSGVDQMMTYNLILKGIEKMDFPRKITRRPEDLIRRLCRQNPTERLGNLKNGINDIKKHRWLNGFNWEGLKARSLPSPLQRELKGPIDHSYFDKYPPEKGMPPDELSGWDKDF
Chain of MAPK10 (human) (P53779 whole entry, looked up): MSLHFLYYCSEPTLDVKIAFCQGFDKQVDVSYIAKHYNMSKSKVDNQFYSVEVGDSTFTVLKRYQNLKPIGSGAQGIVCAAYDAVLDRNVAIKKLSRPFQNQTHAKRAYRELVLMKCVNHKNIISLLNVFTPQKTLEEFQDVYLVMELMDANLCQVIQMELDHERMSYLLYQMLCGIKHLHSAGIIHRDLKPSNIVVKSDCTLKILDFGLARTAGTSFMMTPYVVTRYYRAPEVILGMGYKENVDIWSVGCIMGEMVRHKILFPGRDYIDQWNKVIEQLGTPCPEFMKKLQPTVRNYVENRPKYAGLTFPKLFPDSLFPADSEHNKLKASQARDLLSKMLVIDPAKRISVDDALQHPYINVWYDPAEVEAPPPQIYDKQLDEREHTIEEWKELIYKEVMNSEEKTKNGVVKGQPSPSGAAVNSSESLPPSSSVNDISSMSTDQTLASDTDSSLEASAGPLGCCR
Chain of PRKCI (human) (P41743 whole entry, looked up): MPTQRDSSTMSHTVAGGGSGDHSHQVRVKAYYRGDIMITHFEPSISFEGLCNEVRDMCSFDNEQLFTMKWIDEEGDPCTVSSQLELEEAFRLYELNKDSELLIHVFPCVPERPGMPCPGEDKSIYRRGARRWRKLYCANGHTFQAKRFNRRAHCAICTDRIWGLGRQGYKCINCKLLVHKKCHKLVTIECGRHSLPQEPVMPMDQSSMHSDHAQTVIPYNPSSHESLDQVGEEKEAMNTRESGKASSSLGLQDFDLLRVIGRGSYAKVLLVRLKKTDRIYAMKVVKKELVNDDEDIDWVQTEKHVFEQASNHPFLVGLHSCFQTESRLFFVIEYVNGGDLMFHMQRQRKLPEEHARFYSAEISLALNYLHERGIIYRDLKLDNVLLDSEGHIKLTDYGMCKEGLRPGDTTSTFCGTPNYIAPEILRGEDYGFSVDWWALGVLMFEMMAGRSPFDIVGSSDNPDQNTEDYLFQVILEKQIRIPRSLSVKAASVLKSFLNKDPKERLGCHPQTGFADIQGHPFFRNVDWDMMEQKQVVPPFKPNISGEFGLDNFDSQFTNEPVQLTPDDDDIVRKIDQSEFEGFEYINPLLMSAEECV
Chain of CAMK2A (human) (Q9UQM7 whole entry, looked up): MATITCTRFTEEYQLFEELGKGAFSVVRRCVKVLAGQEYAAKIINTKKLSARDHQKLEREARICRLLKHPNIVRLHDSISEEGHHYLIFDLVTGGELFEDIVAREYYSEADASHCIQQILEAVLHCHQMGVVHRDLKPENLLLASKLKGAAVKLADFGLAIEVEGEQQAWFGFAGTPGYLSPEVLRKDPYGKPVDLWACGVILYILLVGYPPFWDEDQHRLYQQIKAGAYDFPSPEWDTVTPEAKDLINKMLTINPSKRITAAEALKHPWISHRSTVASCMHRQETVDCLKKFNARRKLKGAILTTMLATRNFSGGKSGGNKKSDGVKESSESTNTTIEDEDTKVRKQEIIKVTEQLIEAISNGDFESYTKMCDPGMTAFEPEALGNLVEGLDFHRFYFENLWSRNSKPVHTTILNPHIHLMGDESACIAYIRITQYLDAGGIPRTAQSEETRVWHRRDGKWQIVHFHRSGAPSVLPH

**Q.** What does the source list for Cc1cc2ncc(-c3ccccc3)nc2cc1C?
**A.** residual activity [1]: 103%; residual activity [2]: 97.9%; residual activity [3]: 99.7%; residual activity [4]: 94.8%; residual activity [5]: 96.2%; residual activity [6]: 98.4%; residual activity [7]: 98.3%; residual activity [8]: 94.4%; residual activity [9]: 99.3%; residual activity [10]: 91.8%; residual activity [11]: 98.5%; residual activity [12]: 86.9%; residual activity [13]: 85.7%; residual activity [14]: 89.2%; residual activity [15]: 96.1%; residual activity [16]: 94.9%; residual activity [17]: 107%; residual activity [18]: 97%; residual activity [19]: 86.8%; residual activity [20]: 63.5%; residual activity [21]: 97.8%; residual activity [22]: 113%; residual activity [23]: 88%; residual activity [24]: 103%; residual activity [25]: 95.1%; residual activity [26]: 91.1%; residual activity [27]: 91.8%; residual activity [28]: 94.8%; residual activity [29]: 93.7%; residual activity [30]: 101%; residual activity [31]: 103%; residual activity [32]: 97.4%; residual activity [33]: 103%; residual activity [34]: 124%; residual activity [35]: 98%; residual activity [36]: 96.5%; residual activity [37]: 99.3%; residual activity [38]: 95.3%; residual activity [39]: 91.4%; residual activity [40]: 94.1%; residual activity [41]: 94.7%; residual activity [42]: 113%

**Q.** Which results are given for O=C1Cc2c([nH]c3ccc([N+](=O)[O-])cc23)-c2ccccc2N1?
**A.** residual activity [1]: 54.6%; residual activity [2]: 76.2%; residual activity [3]: 101%; residual activity [4]: 98.2%; residual activity [5]: 94.8%; residual activity [6]: 88.4%; residual activity [7]: 89.2%; residual activity [8]: 54.5%; residual activity [9]: 8.37%; residual activity [10]: 19.6%; residual activity [11]: 99.9%; residual activity [12]: 103%; residual activity [13]: 100%; residual activity [14]: 99.3%; residual activity [15]: 98.6%; residual activity [16]: 99.3%; residual activity [17]: 107%; residual activity [18]: 110%; residual activity [19]: 93%; residual activity [20]: 83.7%; residual activity [21]: 48.6%; residual activity [22]: 8.77%; residual activity [23]: 106%; residual activity [24]: 97.2%; residual activity [25]: 92.7%; residual activity [26]: 71.7%; residual activity [27]: 20.4%; residual activity [28]: 92.9%; residual activity [29]: 108%; residual activity [30]: 97.1%; residual activity [31]: 86.1%; residual activity [32]: 101%; residual activity [33]: 93.7%; residual activity [34]: 105%; residual activity [35]: 83.3%; residual activity [36]: 101%; residual activity [37]: 97.6%; residual activity [38]: 109%; residual activity [39]: 92.7%; residual activity [40]: 79.9%; residual activity [41]: 103%; residual activity [42]: 74.7%
